% of control and % of inhibition data for six compounds are collected here from ChEMBL document CHEMBL5465560, “Selectivity Literature for EUbOPEN Chemogenomic Library” (2024).

For assay [1], the target named is T1, Casein kinase I isoform alpha (Homo sapiens, UniProt P48729). Put plainly: Selectivity interaction (Kinase panel (Z-LYTE Assay)) EUB0001632a CSNK1A1. As to conditions: at 10 µM.
For assay [2], the target named is T2, Ephrin type-A receptor 3 (Homo sapiens) (UniProt P29320).
T2 sequence (whole entry): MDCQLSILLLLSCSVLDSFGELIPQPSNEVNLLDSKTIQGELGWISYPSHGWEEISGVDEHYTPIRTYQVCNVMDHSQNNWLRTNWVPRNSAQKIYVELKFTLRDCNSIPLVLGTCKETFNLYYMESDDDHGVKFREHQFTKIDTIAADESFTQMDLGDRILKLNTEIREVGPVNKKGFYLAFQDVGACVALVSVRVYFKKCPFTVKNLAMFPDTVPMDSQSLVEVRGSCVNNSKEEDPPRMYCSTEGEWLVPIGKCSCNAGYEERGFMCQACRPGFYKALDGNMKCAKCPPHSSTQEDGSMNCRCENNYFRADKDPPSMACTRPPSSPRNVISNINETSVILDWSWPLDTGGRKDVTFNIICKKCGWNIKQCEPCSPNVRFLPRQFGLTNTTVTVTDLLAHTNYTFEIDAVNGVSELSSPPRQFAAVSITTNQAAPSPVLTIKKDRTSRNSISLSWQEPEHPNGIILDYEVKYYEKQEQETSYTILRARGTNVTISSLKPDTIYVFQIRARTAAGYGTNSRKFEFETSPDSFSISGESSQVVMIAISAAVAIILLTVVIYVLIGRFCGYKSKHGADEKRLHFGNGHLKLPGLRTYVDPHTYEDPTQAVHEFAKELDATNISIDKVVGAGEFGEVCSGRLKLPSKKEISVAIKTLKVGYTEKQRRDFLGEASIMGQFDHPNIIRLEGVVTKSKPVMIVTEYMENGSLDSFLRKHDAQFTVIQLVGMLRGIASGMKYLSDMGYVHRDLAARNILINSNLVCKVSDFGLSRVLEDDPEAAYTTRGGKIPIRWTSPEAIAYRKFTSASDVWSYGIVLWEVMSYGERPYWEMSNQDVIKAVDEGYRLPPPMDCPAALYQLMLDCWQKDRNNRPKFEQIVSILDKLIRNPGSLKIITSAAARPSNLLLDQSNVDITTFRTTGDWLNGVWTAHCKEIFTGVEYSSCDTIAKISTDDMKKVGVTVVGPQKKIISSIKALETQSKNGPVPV
Put plainly: Selectivity interaction (Ambit KINOMEscan and KiNATiv profiling in Jurkat cells) EUB0000090b EPHA3. The assay is classed as cell-based. Conditions: at 1 µM.

For assay [3], the target named is T1, Casein kinase I isoform alpha. Put plainly: Selectivity interaction (KinomeScan (DiscoverX)) EUB0000666a CSNK1A1. Conditions: at 10 µM.
Assay [4] has as its target Protein kinase C eta type (Homo sapiens) (UniProt P24723). Put plainly: Selectivity interaction (KinomeScan (DiscoverX)) EUB0000666a PRKCH. As to conditions: at 10 µM.
Assay [5] addresses Protein kinase C delta type (Homo sapiens) (UniProt Q05655). Put plainly: Selectivity interaction (Kinase panel (Invitrogen)) EUB0000639a PRKCD. Conditions: at 200 nM.
For assay [6], the target named is TRAF2 and NCK-interacting protein kinase (Homo sapiens) (UniProt Q9UKE5). Put plainly: Selectivity interaction (KinomeScan (DiscoverX)) EUB0000695a TNIK. As to conditions: at 100 nM.
Sequence of TRAF2 and NCK-interacting protein kinase (Homo sapiens) (Q9UKE5 whole entry, looked up): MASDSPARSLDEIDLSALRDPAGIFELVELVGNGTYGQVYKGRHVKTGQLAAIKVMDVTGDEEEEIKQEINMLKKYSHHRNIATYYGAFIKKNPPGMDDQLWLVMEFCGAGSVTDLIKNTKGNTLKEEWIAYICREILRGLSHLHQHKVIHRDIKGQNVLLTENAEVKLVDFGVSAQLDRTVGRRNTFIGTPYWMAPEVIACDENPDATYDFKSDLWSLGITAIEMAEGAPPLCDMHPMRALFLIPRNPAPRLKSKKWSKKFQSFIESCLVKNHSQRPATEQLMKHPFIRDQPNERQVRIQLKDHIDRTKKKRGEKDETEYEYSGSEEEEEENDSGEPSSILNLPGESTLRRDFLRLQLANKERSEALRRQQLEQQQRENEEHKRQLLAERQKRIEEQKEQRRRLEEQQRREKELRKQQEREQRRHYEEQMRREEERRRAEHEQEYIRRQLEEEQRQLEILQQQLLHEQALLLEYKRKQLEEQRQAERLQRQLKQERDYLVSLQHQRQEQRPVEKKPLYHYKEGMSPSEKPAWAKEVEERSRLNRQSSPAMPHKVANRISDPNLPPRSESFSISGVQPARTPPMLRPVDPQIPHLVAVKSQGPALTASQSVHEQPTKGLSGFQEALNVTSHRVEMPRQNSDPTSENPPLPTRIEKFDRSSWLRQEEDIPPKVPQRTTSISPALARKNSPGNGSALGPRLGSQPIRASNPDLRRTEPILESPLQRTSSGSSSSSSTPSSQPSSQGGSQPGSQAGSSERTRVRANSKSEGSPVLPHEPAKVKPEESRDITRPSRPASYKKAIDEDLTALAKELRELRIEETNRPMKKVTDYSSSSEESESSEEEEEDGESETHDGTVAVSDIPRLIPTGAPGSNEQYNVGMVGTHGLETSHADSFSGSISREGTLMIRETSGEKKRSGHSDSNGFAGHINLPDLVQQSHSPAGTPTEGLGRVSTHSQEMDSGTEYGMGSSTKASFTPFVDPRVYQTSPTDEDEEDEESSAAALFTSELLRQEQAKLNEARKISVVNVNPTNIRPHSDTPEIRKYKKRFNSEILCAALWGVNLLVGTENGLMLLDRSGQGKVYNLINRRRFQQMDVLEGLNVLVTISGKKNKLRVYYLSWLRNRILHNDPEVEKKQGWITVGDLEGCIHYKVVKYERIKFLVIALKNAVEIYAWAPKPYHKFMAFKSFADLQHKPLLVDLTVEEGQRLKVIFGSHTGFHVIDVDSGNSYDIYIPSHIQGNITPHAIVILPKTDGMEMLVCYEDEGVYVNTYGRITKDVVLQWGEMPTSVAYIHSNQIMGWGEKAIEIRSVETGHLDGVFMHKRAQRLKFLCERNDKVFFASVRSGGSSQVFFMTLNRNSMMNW
For assay [7], the target named is T3, Muscle, skeletal receptor tyrosine-protein kinase (Homo sapiens) (UniProt O15146).
T3 sequence (whole entry): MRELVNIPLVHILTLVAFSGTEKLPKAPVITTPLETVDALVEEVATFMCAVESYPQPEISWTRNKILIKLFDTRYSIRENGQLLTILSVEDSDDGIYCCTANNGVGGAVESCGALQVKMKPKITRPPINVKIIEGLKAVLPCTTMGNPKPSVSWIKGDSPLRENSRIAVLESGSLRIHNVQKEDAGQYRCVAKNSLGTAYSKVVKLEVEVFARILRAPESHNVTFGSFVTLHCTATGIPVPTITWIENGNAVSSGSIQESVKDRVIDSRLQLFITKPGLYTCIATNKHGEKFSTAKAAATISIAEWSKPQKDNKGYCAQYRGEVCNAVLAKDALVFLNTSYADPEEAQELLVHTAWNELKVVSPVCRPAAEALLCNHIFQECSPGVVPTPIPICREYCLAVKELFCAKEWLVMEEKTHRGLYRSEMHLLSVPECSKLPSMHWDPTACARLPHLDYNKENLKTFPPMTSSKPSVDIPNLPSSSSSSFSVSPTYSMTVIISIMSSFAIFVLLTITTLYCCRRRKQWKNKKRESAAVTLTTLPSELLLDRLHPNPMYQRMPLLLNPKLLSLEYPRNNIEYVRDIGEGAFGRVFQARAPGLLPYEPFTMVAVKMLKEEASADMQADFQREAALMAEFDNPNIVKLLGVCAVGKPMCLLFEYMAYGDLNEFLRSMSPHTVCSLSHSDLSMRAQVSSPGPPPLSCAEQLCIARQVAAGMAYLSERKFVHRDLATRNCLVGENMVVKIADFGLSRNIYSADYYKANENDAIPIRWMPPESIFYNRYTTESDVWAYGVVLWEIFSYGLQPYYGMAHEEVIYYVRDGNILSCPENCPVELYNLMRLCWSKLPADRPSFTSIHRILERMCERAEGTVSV
Put plainly: Selectivity interaction (KinomeScan (DiscoverX)) EUB0000695a MUSK. Conditions: at 100 nM.

Assay [8] has as its target Macrophage colony-stimulating factor 1 receptor (Homo sapiens) (UniProt P07333). Put plainly: Selectivity interaction (KinomeScan (DiscoverX)) EUB0000595a CSF1R. As to conditions: at 10 µM.
Assay [9] has as its target Mitogen-activated protein kinase 3 (Homo sapiens, UniProt P27361). Put plainly: Selectivity interaction (KinomeScan (DiscoverX)) EUB0000595a MAPK3. Conditions: at 10 µM.

T1 sequence (P48729 2-337 limits assumed): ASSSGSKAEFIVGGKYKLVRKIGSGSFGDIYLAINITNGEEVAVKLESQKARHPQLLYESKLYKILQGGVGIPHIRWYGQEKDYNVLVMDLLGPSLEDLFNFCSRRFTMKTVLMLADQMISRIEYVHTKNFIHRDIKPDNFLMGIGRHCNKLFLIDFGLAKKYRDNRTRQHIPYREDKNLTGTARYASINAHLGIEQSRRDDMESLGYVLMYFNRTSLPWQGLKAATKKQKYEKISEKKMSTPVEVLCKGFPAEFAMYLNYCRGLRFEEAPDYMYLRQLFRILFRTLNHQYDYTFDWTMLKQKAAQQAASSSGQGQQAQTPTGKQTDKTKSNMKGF
Sequence of Macrophage colony-stimulating factor 1 receptor (Homo sapiens) (P07333 whole entry): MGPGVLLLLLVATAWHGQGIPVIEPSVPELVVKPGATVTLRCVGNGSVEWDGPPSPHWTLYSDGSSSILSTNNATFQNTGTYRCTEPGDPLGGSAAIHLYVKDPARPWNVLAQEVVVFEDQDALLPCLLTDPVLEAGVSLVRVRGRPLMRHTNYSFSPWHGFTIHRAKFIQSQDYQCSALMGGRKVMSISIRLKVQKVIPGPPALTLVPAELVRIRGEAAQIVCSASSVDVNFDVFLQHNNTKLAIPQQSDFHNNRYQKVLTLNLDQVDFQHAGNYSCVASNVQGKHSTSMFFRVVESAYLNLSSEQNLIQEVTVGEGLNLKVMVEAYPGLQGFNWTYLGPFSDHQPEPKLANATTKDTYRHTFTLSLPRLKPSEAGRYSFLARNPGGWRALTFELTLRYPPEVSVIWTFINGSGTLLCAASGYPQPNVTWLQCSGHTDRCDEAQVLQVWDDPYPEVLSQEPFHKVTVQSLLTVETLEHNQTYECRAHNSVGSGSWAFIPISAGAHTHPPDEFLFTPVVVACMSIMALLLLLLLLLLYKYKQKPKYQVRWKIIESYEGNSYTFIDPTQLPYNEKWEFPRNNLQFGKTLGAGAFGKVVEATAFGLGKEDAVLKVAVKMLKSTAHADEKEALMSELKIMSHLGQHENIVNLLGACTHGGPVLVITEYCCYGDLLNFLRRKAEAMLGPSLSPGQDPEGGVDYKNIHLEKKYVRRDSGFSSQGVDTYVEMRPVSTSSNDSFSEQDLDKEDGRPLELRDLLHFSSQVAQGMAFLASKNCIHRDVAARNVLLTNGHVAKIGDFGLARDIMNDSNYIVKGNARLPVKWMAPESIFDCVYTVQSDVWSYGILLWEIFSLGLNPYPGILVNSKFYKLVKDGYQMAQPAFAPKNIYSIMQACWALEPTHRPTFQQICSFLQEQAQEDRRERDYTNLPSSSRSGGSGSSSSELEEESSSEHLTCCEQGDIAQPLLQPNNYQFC
Sequence of Mitogen-activated protein kinase 3 (P27361 whole entry): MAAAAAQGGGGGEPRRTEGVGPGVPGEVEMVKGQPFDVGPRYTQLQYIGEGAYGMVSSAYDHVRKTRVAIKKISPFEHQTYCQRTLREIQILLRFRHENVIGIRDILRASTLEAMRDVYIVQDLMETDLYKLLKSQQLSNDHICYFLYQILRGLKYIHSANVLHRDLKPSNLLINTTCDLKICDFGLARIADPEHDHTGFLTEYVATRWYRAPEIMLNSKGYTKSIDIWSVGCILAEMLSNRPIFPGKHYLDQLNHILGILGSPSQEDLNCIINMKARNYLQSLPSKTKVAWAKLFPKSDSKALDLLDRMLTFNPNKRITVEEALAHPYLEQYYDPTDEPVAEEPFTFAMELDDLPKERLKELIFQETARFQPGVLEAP
Sequence of Protein kinase C delta type (Homo sapiens) (Q05655 whole entry, looked up): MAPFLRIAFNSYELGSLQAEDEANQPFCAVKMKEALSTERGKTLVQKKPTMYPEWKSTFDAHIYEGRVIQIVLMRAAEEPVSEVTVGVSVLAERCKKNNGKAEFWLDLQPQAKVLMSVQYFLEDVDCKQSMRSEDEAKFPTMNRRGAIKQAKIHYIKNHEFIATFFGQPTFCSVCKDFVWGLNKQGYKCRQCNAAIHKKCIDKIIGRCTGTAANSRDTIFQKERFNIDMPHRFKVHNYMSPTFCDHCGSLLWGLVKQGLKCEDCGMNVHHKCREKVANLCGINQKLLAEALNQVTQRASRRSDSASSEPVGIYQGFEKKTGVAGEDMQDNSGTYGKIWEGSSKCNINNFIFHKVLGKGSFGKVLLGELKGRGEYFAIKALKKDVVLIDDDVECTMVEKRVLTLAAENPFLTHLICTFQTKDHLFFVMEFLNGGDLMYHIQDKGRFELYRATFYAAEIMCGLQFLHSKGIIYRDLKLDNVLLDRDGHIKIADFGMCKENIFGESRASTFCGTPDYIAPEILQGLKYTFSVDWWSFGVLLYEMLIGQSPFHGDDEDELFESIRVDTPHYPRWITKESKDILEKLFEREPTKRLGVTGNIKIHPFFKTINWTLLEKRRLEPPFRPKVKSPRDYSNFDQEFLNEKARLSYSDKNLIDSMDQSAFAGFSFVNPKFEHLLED
Sequence of Protein kinase C eta type (Homo sapiens) (P24723 whole entry): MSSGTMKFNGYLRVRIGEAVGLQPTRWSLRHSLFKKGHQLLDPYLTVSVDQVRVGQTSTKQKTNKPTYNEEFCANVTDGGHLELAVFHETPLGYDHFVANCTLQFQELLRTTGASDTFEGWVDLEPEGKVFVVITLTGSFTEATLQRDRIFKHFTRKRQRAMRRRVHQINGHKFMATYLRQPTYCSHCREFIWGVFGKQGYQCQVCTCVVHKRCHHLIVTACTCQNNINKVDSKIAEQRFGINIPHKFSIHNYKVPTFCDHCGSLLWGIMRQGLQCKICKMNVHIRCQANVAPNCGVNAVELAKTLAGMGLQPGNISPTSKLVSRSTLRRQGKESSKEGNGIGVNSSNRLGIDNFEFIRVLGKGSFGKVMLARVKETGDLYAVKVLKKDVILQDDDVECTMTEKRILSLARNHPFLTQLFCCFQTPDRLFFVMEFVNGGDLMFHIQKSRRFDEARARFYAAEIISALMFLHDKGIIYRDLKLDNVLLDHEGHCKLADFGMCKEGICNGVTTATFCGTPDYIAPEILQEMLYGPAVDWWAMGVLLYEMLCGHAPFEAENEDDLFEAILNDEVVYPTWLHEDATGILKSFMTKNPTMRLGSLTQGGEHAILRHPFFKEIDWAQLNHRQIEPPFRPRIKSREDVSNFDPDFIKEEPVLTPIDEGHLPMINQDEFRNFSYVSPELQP

As to `Cn1cc(-n2cnc3c(NCc4nc5cc(Cl)c(Cl)cc5[nH]4)nc(N4CCOCC4)nc32)cn1`, in [1], the % of control was 4.57%. Take `CN(C)C/C=C/C(=O)Nc1ccc(C(=O)N2CCCC(Nc3ncc(Cl)c(-c4c[nH]c5ccccc45)n3)C2)cc1` (centres undefined): the % of control in assay [2] was 89%. For `O=C(NOC[C@H](O)CO)c1ccc(F)c(F)c1Nc1ccc(I)cc1F`, the % of control in [3] and in assay [4] was 100% throughout. Consider `CC[C@@H]1[C@H](F)C(=O)N[C@@H]1COc1nccc2cc(C(N)=O)c(OC)cc12` [ZIMLOVISERTIB], for which the % of inhibition in [5] was -5.07%. `Cc1cc(F)c(C(=O)Nc2cccc(-c3nncn3C(C)C)n2)cc1-n1cnc(C2CC2)c1`: the % of control is 78% in [6] and 91% in assay [7]. As for `COCC(=O)NC/C=C/c1ccc2ncnc(Nc3ccc(Oc4ccc(C)nc4)c(C)c3)c2c1` [CP-724714], the % of control in assay [8] is 100%; in assay [9], 95%.
